According to patent US7449312B2, “Kit for conducting a polymerase chain reaction” (The Secretary of State for Defense in Her Britannic …, priority 2001, dated 2008):
Where two headings read alike, the source gives them in different places.

B1: Sac PPase: thermostable pyrophosphatase of Sulfolobus acidocaldarius, obtainable from GeneSys Limited (protein, UniProt P50308 1-173, looked up)
Inorganic pyrophosphatase: MKLSPGKNAPDVVNVLVEIPQGSNIKYEYDDEEGVIKVDRVLYTSMNYPFNYGFIPGTLEEDGDPLDVLVITNYQLYPGSVIEVRPIGILYMKDEEGEDAKIVAVPKDKTDPSFSNIKDINDLPQATKNKIVHFFEHYKELEPGKYVKISGWGSATEAKNRIQLAIKRVSGGQ

Experiments:
Taq DNA polymerase = Taq DNA polymerase (Thermus aquaticus, UniProt P19821); settings: for suppression of PCR: results not shown
Sequence of Taq DNA polymerase (P19821 whole entry): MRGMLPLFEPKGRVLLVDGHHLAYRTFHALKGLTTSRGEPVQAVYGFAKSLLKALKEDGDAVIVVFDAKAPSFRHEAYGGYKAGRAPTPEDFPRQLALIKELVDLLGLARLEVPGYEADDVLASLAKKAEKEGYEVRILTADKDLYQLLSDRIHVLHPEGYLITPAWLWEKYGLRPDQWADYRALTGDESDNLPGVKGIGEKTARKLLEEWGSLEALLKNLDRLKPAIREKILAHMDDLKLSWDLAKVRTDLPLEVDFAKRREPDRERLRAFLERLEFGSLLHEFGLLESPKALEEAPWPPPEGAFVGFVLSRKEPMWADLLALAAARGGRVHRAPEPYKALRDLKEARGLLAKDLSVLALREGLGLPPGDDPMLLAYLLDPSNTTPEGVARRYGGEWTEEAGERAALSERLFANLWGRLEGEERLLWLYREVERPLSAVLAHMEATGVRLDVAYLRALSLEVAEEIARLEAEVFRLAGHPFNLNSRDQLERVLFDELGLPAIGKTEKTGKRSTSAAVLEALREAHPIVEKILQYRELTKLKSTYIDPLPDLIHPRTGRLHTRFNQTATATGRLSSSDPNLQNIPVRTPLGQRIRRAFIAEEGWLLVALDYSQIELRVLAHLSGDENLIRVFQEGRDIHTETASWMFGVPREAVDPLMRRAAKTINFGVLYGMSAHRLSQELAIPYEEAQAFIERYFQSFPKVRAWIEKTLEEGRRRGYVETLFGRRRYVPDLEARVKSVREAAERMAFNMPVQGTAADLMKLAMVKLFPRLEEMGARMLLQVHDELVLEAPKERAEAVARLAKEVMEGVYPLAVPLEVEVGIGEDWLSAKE
Description: Using Taq DNA polymerase, a standard 500 bp lambda template PCR using the following reagents, was conducted in the presence of differing quantities of the inorganic pyrorphosphate, tetrasodium pyrophosphate decahydrate (PPi).
1× Reaction Buffer: 10 mM Tris. pH 8.0, 50 mM KCl.
(§1) PCR conditions for the assay were as follows:
The PPi was added such that the final concentration in the reaction mixture was 0, 1, 2, 3, 4 and 5 mM. In this Figure, the lanes correspond to the following concentrations of PPi
In order to eliminate this possibility, the procedure of Example 1 with 3 mM PPi was repeated in the presence of various concentrations of magnesium ions.
The example was repeated using concentrations of PPi of less than 1 mM.

[1] = system: thermostable DNA polymerases (Taq, Tbr, Tth, TspNH, Pfu, 9°N exo-, VENT, Accurase); test: PCR with different thermostable DNA polymerases, with PPi and Sac PPase; assay type: biochemical; settings: FIGS. 7a, 7b, 8b
Text: A variety of thermostable DNA polymerases were employed in the method of the invention and some comparative assays. These included several non-proofreading Thermus sp. DNA polymerases, proof-reading hyperthermophilic archael DNA polymerases and mixes of non-proofreading and proofreading DNA polymerases.
They were all tested using the 500 bp lambda PCR as described in Example 1 (FIGS. 7a and 7b), and several using the Angiotensin assay as described in Example 4 (FIGS. 8a and 8b).

[2] = 500 bp lambda PCR in the presence of PPi and PPase; assay type: biochemical; settings: 0.2 u Sac PPase; 95° C. for 5 mins
Text: The 500 bp lambda PCR of Example 1 was repeated, but this time, 0.2 u of Sulfolobus acidocaldarius PPase (Sac PPase) was included in reactions containing pyrophosphate (PPi).
The results are shown in FIG. 3 where the lanes represent the following reactions: […]

[3] = system: 321 bp fragment of the human angiotensin gene; test: Angiotensin PCR assay requiring a HotStart reaction; assay type: biochemical; settings: up to two hours at ambient temperature; 0.2 u Sac PPase, 3 mM PPi
Text: The method of the invention was then applied to an assay system that requires a “HotStart” reaction in order to generate a PCR product of the correct size.
The assay is based around the amplification of a 321 bp fragment of the human angiotensin gene. It has been recognised that the assay will only generate the correct amplification product in the presence of betaine (EP-A-0962526—see in particular Example 8).
Without betaine a HotStart DNA polymerase generates few non-specific amplification products or no products at all whereas a non-HotStart DNA polymerase PCR generates a large number of non-specific amplification products.
The PCR conditions used in the Angiotensin assay can be summarised as follows.
as §1
The reaction was conducted using a PE9700 Instrument in the presence of 3 mM PPi and 0.2 u PPase as described in Example 3.
The effect of leaving a PCR mixture containing 0.2 u Sac PPase and 3 mM PPi at room temperature 20° C. for various lengths of time prior to conducting the Angiotensin assay, was investigated. Although Sac PPase is a thermostable enzyme, it was possible that there would be a small level of enzyme activity at ambient temperatures. This might lead to insufficient PPi in the reaction to inhibit/stop the DNA polymerase leading to primer extension and lack of “HotStart” functionality. […]

Molecule	suppression of PCR (Taq DNA polymerase; 0.4 mM PPi)	suppression of PCR (Taq DNA polymerase; 0.6 mM PPi)	PCR with increasing magnesium ion concentration (Taq DNA polymerase; 3 mM PPi, Mg++ up to 10 mM final concentration, FIG. 2)	PCR product formation in presence of PPi (Taq DNA polymerase; PPi 1, 2, 3, 4 and 5 mM final, 1.5 mM MgCl2, FIG. 1)	inhibition of DNA polymerases by PPi ([1]; 3 mM PPi, no PPase)	destruction of pyrophosphate so that the PCR reaction could proceed [2]	ambient temperature digestion of PPi by PPase [3]	reversal of PPi inhibition by PPase ([1]; 3 mM PPi and 0.2u Sac PPase)
O.O.O.O.O.O.O.O.O.O.O=P([O-])([O-])OP(=O)([O-])[O-].[Na+].[Na+].[Na+].[Na+] [PPi, tetrasodium pyrophosphate decahydrate]	did not completely suppress the PCR	no PCR occurred	does not allow PCR to occur	no PCR product was produced	inhibited	–	–	–
B1	–	–	–	–	–	sufficient to destroy the pyrophosphate	insufficient ambient temperature digestion of the PPi	inhibition could be overcome
